# Test results published in PubChem BioAssay (NCI).
#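 1) Cells in 96-well plates. 2) Compound, 48 h, 5 concentrations. 3) Linear interpolation between surrounding doses. 4) Unreached endpoint = highest concentration. TGI: concentration producing complete growth inhibition.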
# Tested on: TK-10 renal
# Assay: growth of human tumour cells (NCI), 48 h
row,Structure (SMILES),TGI [µM]
1,CC(=O)c1sc2c(c1OC(=O)c1cccs1)c(=O)n(-c1ccccc1)c(=S)n2-c1ccccc1,55.4
2,NS(=O)(=O)c1ccc(-n2c(-c3cccs3)nc3ccc(I)cc3c2=O)cc1,50.8
3,CCOC(=O)CC1c2ccc(O)cc2OC(=O)C1c1ccc([N+](=O)[O-])cc1 (stereo unspecified),75.3
4,CCOC(=O)C1(C(=O)OCC)CN(CC)CN(c2ccccc2)C1,33.1
5,COC1=C(Br)[C@H](O)[C@@]2(C=C1Br)CC(C(=O)NCCCCCN=C(N)N)=NO2,> 10
6,CC(=O)OC1CC2c3cccc4c3C(CC2N(C)C1=O)CN4C(=O)c1ccccc1 (stereo unspecified),> 100

# Tested on: DU-145 prostate
# Assay: growth of human tumour cells (NCI), 48 h
row,Structure (SMILES),TGI [µM]
1,COc1ccc(C[N+]23C(CC[C@H]2c2ccccc2)CC[C@H]3c2ccccc2)cc1 (stereo partly specified),77.8
2,CC(=O)c1sc2c(c1OC(=O)c1cccs1)c(=O)n(-c1ccccc1)c(=S)n2-c1ccccc1,57.8
3,NS(=O)(=O)c1ccc(-n2c(-c3cccs3)nc3ccc(I)cc3c2=O)cc1,35.9
4,CCOC(=O)CC1c2ccc(O)cc2OC(=O)C1c1ccc([N+](=O)[O-])cc1 (stereo unspecified),> 100
5,CCOC(=O)C1(C(=O)OCC)CN(CC)CN(c2ccccc2)C1,91.7
6,COC1=C(Br)[C@H](O)[C@@]2(C=C1Br)CC(C(=O)NCCCCCN=C(N)N)=NO2,> 10
7,CC(=O)OC1CC2c3cccc4c3C(CC2N(C)C1=O)CN4C(=O)c1ccccc1 (stereo unspecified),42.1

# Tested on: SK-MEL-28 melanoma
# Assay: growth of human tumour cells (NCI), 48 h
row,Structure (SMILES),TGI [µM]
1,COc1ccc(C[N+]23C(CC[C@H]2c2ccccc2)CC[C@H]3c2ccccc2)cc1 (stereo partly specified),> 100
2,CC(=O)c1sc2c(c1OC(=O)c1cccs1)c(=O)n(-c1ccccc1)c(=S)n2-c1ccccc1,15.6
3,NS(=O)(=O)c1ccc(-n2c(-c3cccs3)nc3ccc(I)cc3c2=O)cc1,55.5
4,CCOC(=O)CC1c2ccc(O)cc2OC(=O)C1c1ccc([N+](=O)[O-])cc1 (stereo unspecified),> 100
5,CCOC(=O)C1(C(=O)OCC)CN(CC)CN(c2ccccc2)C1,38.8
6,COC1=C(Br)[C@H](O)[C@@]2(C=C1Br)CC(C(=O)NCCCCCN=C(N)N)=NO2,> 10
7,CC(=O)OC1CC2c3cccc4c3C(CC2N(C)C1=O)CN4C(=O)c1ccccc1 (stereo unspecified),77.1

# Tested on: MCF7 breast
# Assay: growth of human tumour cells (NCI), 48 h
row,Structure (SMILES),TGI [µM]
1,COc1ccc(C[N+]23C(CC[C@H]2c2ccccc2)CC[C@H]3c2ccccc2)cc1 (stereo partly specified),78.9
2,CC(=O)c1sc2c(c1OC(=O)c1cccs1)c(=O)n(-c1ccccc1)c(=S)n2-c1ccccc1,56.4
3,NS(=O)(=O)c1ccc(-n2c(-c3cccs3)nc3ccc(I)cc3c2=O)cc1,65.4
4,CCOC(=O)CC1c2ccc(O)cc2OC(=O)C1c1ccc([N+](=O)[O-])cc1 (stereo unspecified),40.9
5,CCOC(=O)C1(C(=O)OCC)CN(CC)CN(c2ccccc2)C1,35.1
6,COC1=C(Br)[C@H](O)[C@@]2(C=C1Br)CC(C(=O)NCCCCCN=C(N)N)=NO2,> 10
7,CC(=O)OC1CC2c3cccc4c3C(CC2N(C)C1=O)CN4C(=O)c1ccccc1 (stereo unspecified),62.9

# Tested on: SW-620 colon
# Assay: growth of human tumour cells (NCI), 48 h
row,Structure (SMILES),TGI [µM]
1,COc1ccc(C[N+]23C(CC[C@H]2c2ccccc2)CC[C@H]3c2ccccc2)cc1 (stereo partly specified),> 100
2,CC(=O)c1sc2c(c1OC(=O)c1cccs1)c(=O)n(-c1ccccc1)c(=S)n2-c1ccccc1,45.9
3,NS(=O)(=O)c1ccc(-n2c(-c3cccs3)nc3ccc(I)cc3c2=O)cc1,> 100
4,CCOC(=O)CC1c2ccc(O)cc2OC(=O)C1c1ccc([N+](=O)[O-])cc1 (stereo unspecified),> 100
5,CCOC(=O)C1(C(=O)OCC)CN(CC)CN(c2ccccc2)C1,> 100
6,COC1=C(Br)[C@H](O)[C@@]2(C=C1Br)CC(C(=O)NCCCCCN=C(N)N)=NO2,> 10
7,CC(=O)OC1CC2c3cccc4c3C(CC2N(C)C1=O)CN4C(=O)c1ccccc1 (stereo unspecified),> 100

# Tested on: SR leukemia
# Assay: growth of human tumour cells (NCI), 48 h
row,Structure (SMILES),TGI [µM]
1,COc1ccc(C[N+]23C(CC[C@H]2c2ccccc2)CC[C@H]3c2ccccc2)cc1 (stereo partly specified),41.4
2,NS(=O)(=O)c1ccc(-n2c(-c3cccs3)nc3ccc(I)cc3c2=O)cc1,> 100
3,CCOC(=O)CC1c2ccc(O)cc2OC(=O)C1c1ccc([N+](=O)[O-])cc1 (stereo unspecified),77.5
4,CCOC(=O)C1(C(=O)OCC)CN(CC)CN(c2ccccc2)C1,47.7
5,COC1=C(Br)[C@H](O)[C@@]2(C=C1Br)CC(C(=O)NCCCCCN=C(N)N)=NO2,> 10
6,CC(=O)OC1CC2c3cccc4c3C(CC2N(C)C1=O)CN4C(=O)c1ccccc1 (stereo unspecified),94.8

# Tested on: HOP-92 NSCLC
# Assay: growth of human tumour cells (NCI), 48 h
row,Structure (SMILES),TGI [µM]
1,COc1ccc(C[N+]23C(CC[C@H]2c2ccccc2)CC[C@H]3c2ccccc2)cc1 (stereo partly specified),39.5
2,CC(=O)c1sc2c(c1OC(=O)c1cccs1)c(=O)n(-c1ccccc1)c(=S)n2-c1ccccc1,22.1
3,NS(=O)(=O)c1ccc(-n2c(-c3cccs3)nc3ccc(I)cc3c2=O)cc1,54.1
4,CCOC(=O)CC1c2ccc(O)cc2OC(=O)C1c1ccc([N+](=O)[O-])cc1 (stereo unspecified),63.2
5,CCOC(=O)C1(C(=O)OCC)CN(CC)CN(c2ccccc2)C1,33.3
6,CC(=O)OC1CC2c3cccc4c3C(CC2N(C)C1=O)CN4C(=O)c1ccccc1 (stereo unspecified),34.8

# Tested on: MOLT-4 leukemia
# Assay: growth of human tumour cells (NCI), 48 h
row,Structure (SMILES),TGI [µM]
1,COc1ccc(C[N+]23C(CC[C@H]2c2ccccc2)CC[C@H]3c2ccccc2)cc1 (stereo partly specified),90.1
2,CC(=O)c1sc2c(c1OC(=O)c1cccs1)c(=O)n(-c1ccccc1)c(=S)n2-c1ccccc1,60.8
3,NS(=O)(=O)c1ccc(-n2c(-c3cccs3)nc3ccc(I)cc3c2=O)cc1,> 100
4,CCOC(=O)CC1c2ccc(O)cc2OC(=O)C1c1ccc([N+](=O)[O-])cc1 (stereo unspecified),78.6
5,CCOC(=O)C1(C(=O)OCC)CN(CC)CN(c2ccccc2)C1,40.4
6,COC1=C(Br)[C@H](O)[C@@]2(C=C1Br)CC(C(=O)NCCCCCN=C(N)N)=NO2,> 10
7,CC(=O)OC1CC2c3cccc4c3C(CC2N(C)C1=O)CN4C(=O)c1ccccc1 (stereo unspecified),> 100

# Tested on: HS 578T breast
# Assay: growth of human tumour cells (NCI), 48 h
row,Structure (SMILES),TGI [µM]
1,COc1ccc(C[N+]23C(CC[C@H]2c2ccccc2)CC[C@H]3c2ccccc2)cc1 (stereo partly specified),> 100
2,CC(=O)c1sc2c(c1OC(=O)c1cccs1)c(=O)n(-c1ccccc1)c(=S)n2-c1ccccc1,22.3
3,CCOC(=O)CC1c2ccc(O)cc2OC(=O)C1c1ccc([N+](=O)[O-])cc1 (stereo unspecified),> 100
4,CCOC(=O)C1(C(=O)OCC)CN(CC)CN(c2ccccc2)C1,> 100
5,COC1=C(Br)[C@H](O)[C@@]2(C=C1Br)CC(C(=O)NCCCCCN=C(N)N)=NO2,> 10

# Tested on: HCT-15 colon
# Assay: growth of human tumour cells (NCI), 48 h
row,Structure (SMILES),TGI [µM]
1,CC(=O)c1sc2c(c1OC(=O)c1cccs1)c(=O)n(-c1ccccc1)c(=S)n2-c1ccccc1,36.5
2,NS(=O)(=O)c1ccc(-n2c(-c3cccs3)nc3ccc(I)cc3c2=O)cc1,50.9
3,CCOC(=O)CC1c2ccc(O)cc2OC(=O)C1c1ccc([N+](=O)[O-])cc1 (stereo unspecified),> 100
4,CCOC(=O)C1(C(=O)OCC)CN(CC)CN(c2ccccc2)C1,39
5,COC1=C(Br)[C@H](O)[C@@]2(C=C1Br)CC(C(=O)NCCCCCN=C(N)N)=NO2,> 10
6,CC(=O)OC1CC2c3cccc4c3C(CC2N(C)C1=O)CN4C(=O)c1ccccc1 (stereo unspecified),46.2

# Tested on: A498 renal
# Assay: growth of human tumour cells (NCI), 48 h
row,Structure (SMILES),TGI [µM]
1,COc1ccc(C[N+]23C(CC[C@H]2c2ccccc2)CC[C@H]3c2ccccc2)cc1 (stereo partly specified),> 100
2,CC(=O)c1sc2c(c1OC(=O)c1cccs1)c(=O)n(-c1ccccc1)c(=S)n2-c1ccccc1,15.9
3,CCOC(=O)CC1c2ccc(O)cc2OC(=O)C1c1ccc([N+](=O)[O-])cc1 (stereo unspecified),89.1
4,CCOC(=O)C1(C(=O)OCC)CN(CC)CN(c2ccccc2)C1,> 100
5,COC1=C(Br)[C@H](O)[C@@]2(C=C1Br)CC(C(=O)NCCCCCN=C(N)N)=NO2,> 10
6,CC(=O)OC1CC2c3cccc4c3C(CC2N(C)C1=O)CN4C(=O)c1ccccc1 (stereo unspecified),74.6

# Tested on: M14 melanoma
# Assay: growth of human tumour cells (NCI), 48 h
row,Structure (SMILES),TGI [µM]
1,COc1ccc(C[N+]23C(CC[C@H]2c2ccccc2)CC[C@H]3c2ccccc2)cc1 (stereo partly specified),42.4
2,CC(=O)c1sc2c(c1OC(=O)c1cccs1)c(=O)n(-c1ccccc1)c(=S)n2-c1ccccc1,10.6
3,NS(=O)(=O)c1ccc(-n2c(-c3cccs3)nc3ccc(I)cc3c2=O)cc1,56
4,CCOC(=O)CC1c2ccc(O)cc2OC(=O)C1c1ccc([N+](=O)[O-])cc1 (stereo unspecified),43.8
5,CCOC(=O)C1(C(=O)OCC)CN(CC)CN(c2ccccc2)C1,39.1
6,COC1=C(Br)[C@H](O)[C@@]2(C=C1Br)CC(C(=O)NCCCCCN=C(N)N)=NO2,> 10
7,CC(=O)OC1CC2c3cccc4c3C(CC2N(C)C1=O)CN4C(=O)c1ccccc1 (stereo unspecified),55.8

# Tested on: MDA-N
# Assay: growth of human tumour cells (NCI), 48 h
row,Structure (SMILES),TGI [µM]
1,COc1ccc(C[N+]23C(CC[C@H]2c2ccccc2)CC[C@H]3c2ccccc2)cc1 (stereo partly specified),65.4
2,CC(=O)c1sc2c(c1OC(=O)c1cccs1)c(=O)n(-c1ccccc1)c(=S)n2-c1ccccc1,19.2
3,NS(=O)(=O)c1ccc(-n2c(-c3cccs3)nc3ccc(I)cc3c2=O)cc1,> 100
4,CCOC(=O)CC1c2ccc(O)cc2OC(=O)C1c1ccc([N+](=O)[O-])cc1 (stereo unspecified),93.5
5,CCOC(=O)C1(C(=O)OCC)CN(CC)CN(c2ccccc2)C1,87.9
6,COC1=C(Br)[C@H](O)[C@@]2(C=C1Br)CC(C(=O)NCCCCCN=C(N)N)=NO2,> 10
7,CC(=O)OC1CC2c3cccc4c3C(CC2N(C)C1=O)CN4C(=O)c1ccccc1 (stereo unspecified),77.1

# Tested on: EKVX NSCLC
# Assay: growth of human tumour cells (NCI), 48 h
row,Structure (SMILES),TGI [µM]
1,COc1ccc(C[N+]23C(CC[C@H]2c2ccccc2)CC[C@H]3c2ccccc2)cc1 (stereo partly specified),69.8
2,CC(=O)c1sc2c(c1OC(=O)c1cccs1)c(=O)n(-c1ccccc1)c(=S)n2-c1ccccc1,51.1
3,NS(=O)(=O)c1ccc(-n2c(-c3cccs3)nc3ccc(I)cc3c2=O)cc1,54.3
4,CCOC(=O)CC1c2ccc(O)cc2OC(=O)C1c1ccc([N+](=O)[O-])cc1 (stereo unspecified),> 100
5,CCOC(=O)C1(C(=O)OCC)CN(CC)CN(c2ccccc2)C1,34
6,CC(=O)OC1CC2c3cccc4c3C(CC2N(C)C1=O)CN4C(=O)c1ccccc1 (stereo unspecified),83.1

# Tested on: SN12C renal
# Assay: growth of human tumour cells (NCI), 48 h
row,Structure (SMILES),TGI [µM]
1,COc1ccc(C[N+]23C(CC[C@H]2c2ccccc2)CC[C@H]3c2ccccc2)cc1 (stereo partly specified),> 100
2,CC(=O)c1sc2c(c1OC(=O)c1cccs1)c(=O)n(-c1ccccc1)c(=S)n2-c1ccccc1,15.1
3,NS(=O)(=O)c1ccc(-n2c(-c3cccs3)nc3ccc(I)cc3c2=O)cc1,98.9
4,CCOC(=O)CC1c2ccc(O)cc2OC(=O)C1c1ccc([N+](=O)[O-])cc1 (stereo unspecified),81.3
5,CCOC(=O)C1(C(=O)OCC)CN(CC)CN(c2ccccc2)C1,> 100
6,COC1=C(Br)[C@H](O)[C@@]2(C=C1Br)CC(C(=O)NCCCCCN=C(N)N)=NO2,> 10
